SMILES strings stand for the structures.

The values below come from publication PMC8851282, “Senolysis induced by 25-hydroxycholesterol targets CRYAB in multiple cell types” (iScience, 2022).

In assay [1] the test system is Cdkn1a and Cryab mRNA in gastrocnemius and soleus muscles. Put plainly: qRT-PCR of senescence markers and Cryab in muscles of Doxo-treated mice given 25HC. Format: in vivo, mouse. Particulars: Doxo-treated male mice, 25HC 50 mg/kg i.p. for 7 consecutive days. The procedure:
Figure 8 25HC induces senolysis in vivo in Doxo-treated mice (A) Timeline of 25HC treatment in Doxo-treated mice. Mice were given 4 mg/kg Doxo or PBS for 5 daily injections[A1], then injected with 25HC or vehicle for 7 consecutive days. (B) Mass of gastrocnemius muscles. Muscle weight was normalized to body weight. (C) Cdkn2a and Cryab mRNA levels in gastrocnemius (Gastroc) and soleus (Sol) muscles. RNA was collected 28–30 d after the first treatment with Doxo. mRNA levels were quantified by qRT-PCR, and normalized to actin mRNA levels. The average value of PBS-vehicle was set at 1. (D) 15-d-PGJ2 analysis in urine. Urine was collected at 24 h after the first treatment with 25HC or HbCD. p values versus PBS-Veh or Doxo-Veh are obtained using Tukey's multiple comparisons test. ∗p < 0.05, ∗∗p < 0.01, p < 0.001, and ∗∗∗∗p < 0.0001.
Male C57BL/6J mice (3–4 months old) were purchased from the Jackson Laboratory. We performed five i.p. injections with 4 mg/kg of Doxo (Tocris Bioscience, Product# 2252) for each injection over 10 days (Figure 6A). Therefore, we injected a total of 20 mg/kg of Doxo/mouse over 10 days. We used EFT-PBS (EMD Millipore, Product# TMS-012-A) as a control. To test effects of 25HC (Tocris Bioscience, Product# 5741) on Doxo-treated mice, we prepared three experimental groups (n=15 for each group): 1) PBS+HβCD vehicle (22.5%), 2) Doxo (20 mg/kg)+vehicle (22.5%), 3) Doxo (20 mg/kg)+25HC (50 mg/kg) (Figure 6A); 25HC was dissolved in 22.5% 2-hydroxypropyl-beta-cyclodextrin (HβCD) (Tocris Bioscience, Product 0708). On the Day 5 after the last Doxo/PBS injections, the mice were treated with either 25HC (50 mg/kg) or vehicle by i.p. injections for 7 consecutive days (Figure 6A). 12 hr after the first 25HC or vehicle treatments, urine was collected (Figure 6A) from each group to test for the senolysis marker 15-d-PGJ2. […] Senescence markers p16^INK4a, p21^Cip1 and CRYAB expression was analyzed on gastrocnemius (Gastroc), soleus (So), tibialis anterior (TA), visceral fat (VF), kidney (Ki), liver (Li), lung (Lu), heart (He), and skin (Sk) samples by qRT-PCR. […]

The test system of assay [2] is mouse dermal fibroblasts (mDFs). Description: Cell viability assay of NS and SEN mouse dermal fibroblasts treated with CRYAB and HMOX1 inhibitors. Type of assay: cell-based. The conditions noted are these: 250 nM Doxo-induced senescence; after 72 h of treatment; 25HC at five or 10 μM. The protocol: The average value of DMSO was set at 1. (B and D) Effects of CRYAB and HMOX1 inhibitors on DMSO-treated NS or Doxo-treated SEN cells; (B) mDFs, (D) IMR-90s. Cells were treated with the inhibitors at the indicated concentrations. Cell viability was measured after 72 h. (C) IMR-90 qRT-PCR. For qPCR: mean +/- SE, n =4, ∗p< 0.05, ∗∗p< 0.01, ∗∗∗p<0.001, ∗∗∗∗p<0.0001 by Dunnett’s multiple comparisons test vs DMSO. For cell viability assays: mean +/- SE, n =3, ∗∗p< 0.01, ∗∗∗p<0.001, ∗∗∗∗p<0.0001 vs 0 mM by student’s t test.
For skin sample collection, mice were euthanized, hair removed from dorsal skin and the area cleaned with alcohol. A small 1 cm x 1 cm region of skin was removed, and subcutaneous fat removed by scalpel. Skin was digested in 2–3 ml of 0.25% trypsin at 37 °C for 1 h. Hair and epidermis were further removed, and the dermis was minced into 2–3 mm pieces. Digestion of the sample in 5 ml of 1 mg/ml collagenase (Sigma, Cat#C5138) in HBSS (with Ca^++ and Mg^++) (Gibco, cat#24020117) was carried out at 37 °C on a shaker for 1 h. Collagenase digestion was stopped by addition of 10 ml 10% FBS DMEM. Filtration of the homogenate through a 70-micron mesh was performed to remove undigested tissue. Differential centrifugation and washing were performed at 1200 rpm for 5 min, and the pellet was resuspended in 10% FBS DMEM then seeded in a six-well plate. Media were changed at 5 days after seeding and then every 3 days.
All experiments were performed in incubators at 37 °C, 3% O2 and 5% CO2. Senescence was induced by treatment with either Doxo (250 nM for 24 h) ([Demaria et al., 2017]) or X-irradiation (10 Gy) ([Limbad et al., 2020]). For cell culture studies using 25HC, it was used at the indicated concentrations in the media.
Cell viability was assessed using a cell counting kit-8 from Dojindo Molecular Technologies, Inc (Cat CK04-20). Cells were incubated with culture media + 10% kit cell viability reagent, 150 μL/well in 96-well plates for 2 h. The supernatant was transferred to a new 96-well plate and absorbance read at 450 nm as recommended in the product datasheet.

On to `C[C@H](CCCC(C)(C)O)[C@H]1CC[C@H]2[C@@H]3CC=C4C[C@@H](O)CC[C@]4(C)[C@H]3CC[C@]12C` [25HC, 25-hydroxycholesterol], for which the “Cryab mRNA levels in muscle” value in assay [1] is “reduced”. Moreover, in assay [1] (versus Doxo + vehicle), the “Cdkn1a mRNA in gastrocnemius and soleus” value is listed as “significantly decreased”. In addition, the “senolysis in mDF cells” value in assay [2] is on record as “induced significant senolysis”.
